Measured values reported in a melting point compilation (Tetko et al.).

| Structure (SMILES) | melting point |
| --- | --- |
| CSc1[nH]c(=O)c(C(=O)O)cc1C#N | 254 to 256 °C |
| CC(C)Oc1ccc(C(N)=O)cc1 | 166 to 168 °C |
| Cc1ccc(C(N)=S)c(C)c1 | 59 to 63 °C |
| Nc1cc(I)ccc1Br | 64 to 66 °C |
| COC(=O)C(=O)CC(=O)c1ccncc1 | 93 to 95 °C |
| O=C(O)c1cc(S(=O)(=O)NCCCN2CCCC2=O)ccc1Cl | 98 to 100 °C |
| O=C(O)CNC(=O)c1cccs1 | 169 to 171 °C |
| NNc1ccc([N+](=O)[O-])cn1 | 194 to 196 °C |
| CC(CCNC(N)=O)c1ccccc1 (configuration not stated) | 77 to 79 °C |
| CCN(CC)C(=O)c1cccc(N)c1 | 81 to 83 °C |
| CN(C)c1ccc(N2C(=O)CSC2=S)cc1 | 138 to 140 °C |
| O=S(=O)(c1ccc(C(F)(F)F)cc1)N1CCNCC1 | 163 to 169 °C |
| CC(C)CC(=O)NNC(=O)C(C)Cl (configuration not stated) | 174 to 176 °C |
| CCOC(=O)c1sc2nc(C)nc(Cl)c2c1C | 145 to 147 °C |
| O=C(O)c1cc(Br)c(Cl)[nH]1 | 179 to 181 °C |
| O=C(CCl)NOCc1ccccc1 | 92 to 94 °C |
| CC(=O)CCc1ccc2c(c1)OCO2 | 50 to 52 °C |
| Brc1ccc(-c2cscn2)cc1 | 69 to 71 °C |
| COc1cc(Cl)ccc1S(=O)(=O)Cl | 89 to 91 °C |
| Cc1cc(Cl)n2nc(C(F)(F)F)nc2n1 | 106 to 108 °C |
| Nc1nnc(C(F)F)s1 | 174 to 176 °C |
| CN(C)S(=O)(=O)c1cccc(NC(=S)NN)c1 | 155 to 157 °C |
| NC(=O)CCC(NS(=O)(=O)c1cccc(C(F)(F)F)c1)C(=O)O (configuration not stated) | 164 to 166 °C |
| NCc1nncn1-c1ccccc1 | 59 to 61 °C |

| Structure (SMILES) | melting point |
| --- | --- |
| CSc1nccn1-c1cccc(C(=O)O)c1 | 225 to 227 °C |
| CC(=O)N1CCN(CC#N)CC1 | 107 to 109 °C |
| Cc1cc(S(N)(=O)=O)cc(NC(=O)CCl)c1C | 210 to 212 °C |
| O=C(O)c1ccccc1Cc1nc2ccccc2s1 | 182 to 184 °C |
| COc1c(C(=O)O)sc(C)c1Br | 165 to 167 °C |
| O=C(Nc1cccc(-c2nnnn2C2CC2)c1)OCC(F)(F)F | 124 to 126 °C |
| Cn1c(=O)[nH]c(=O)c2cc(S(=O)(=O)Cl)cnc21 | 214 to 216 °C |
| CCCS(N)(=O)=O | 47 to 49 °C |
| O=C(O)C1CCN(C(=O)NCc2ccco2)CC1 | 138 to 140 °C |
| Cc1nc(Cl)cc(-c2cccnc2)n1 | 67 to 69 °C |
| O=C(O)c1cc(F)cc2[nH]cnc12 | 339 to 341 °C |
| Clc1ccc2[nH]c(C3CCCN3)nc2c1 (configuration not stated) | 124 to 126 °C |
| O=C(O)c1ccc(S(=O)(=O)Nc2ccncc2)cc1 | 297 to 299 °C |
| Cc1nn(C(C)(C)C)c2nc(C(C)C)cc(C(=O)O)c12 | 121 to 123 °C |
| CC(Cl)c1nc2cc(Cl)ccc2n1Cc1ccccc1 (configuration not stated) | 110 to 112 °C |
| Cc1ccc(NS(=O)(=O)c2cc(C(=O)O)ccc2C)cc1 | 55 to 57 °C |
| CC(C)(C)OC(=O)NC12CCC(C(=O)O)(C1)C2 | 169 to 171 °C |
| NS(=O)(=O)c1ccc(CCn2c(S)nc3ccccc3c2=O)cc1 | 294 to 296 °C |
| Cc1c(S(=O)(=O)Cl)sc2cc(F)ccc12 | 138 to 140 °C |
| Nc1sc2c(c1C(=O)c1cccc(F)c1)CCCC2 | 110 to 114 °C |
| CCn1c(C)nc2cc(C(=O)NN)ccc21 | 183 to 185 °C |
| COC(=O)c1cc(S(N)(=O)=O)c(F)cc1Br | 164 to 166 °C |
| O=C(O)c1cnn(-c2ccc(Cl)cc2Cl)c1 | 246 to 248 °C |
| Cn1c(S)nnc1-c1cncc(N)c1 | 206 to 208 °C |

| Structure (SMILES) | melting point |
| --- | --- |
| CC(=O)c1cccc(S(=O)(=O)N2CCOCC2)c1 | 142 to 144 °C |
| COC(=O)c1c(NC(=O)CCl)sc(C)c1C | 143 to 145 °C |
| CC(=O)N(c1ccc(Cl)cc1)c1nc(CCl)cs1 | 145 to 147 °C |
| O=C(O)COc1cc(Cl)cc(Cl)c1 | 115 to 117 °C |
| COC(=O)Cn1cnc(N)n1 | 136 to 138 °C |
| CN(C1CCCCC1)S(=O)(=O)c1ccc(N)cc1 | 142 to 144 °C |
| OCCCOc1cccc2ccccc12 | 65 to 67 °C |
| COc1c(Cl)cc(C(=O)O)cc1Cl | 152 to 154 °C |
| CC(C)n1nc(C(=O)O)c2ccccc2c1=O | 142 to 144 °C |
| Nc1ccc(F)c(F)c1N | 114 to 117 °C |
| COc1cccc(CSCC(N)C(=O)O)c1 (configuration not stated) | 194 to 196 °C |
| CCOC(=O)C1CCN(C(=O)c2ccccc2)CC1 | 84 to 86 °C |
| O=C(O)C1CC1c1cccc(Cl)c1Cl (configuration not stated) | 124 to 126 °C |
| NNc1c(F)cc(F)cc1Cl | 87 to 89 °C |
| O=C(O)C(=O)Cc1cccs1 | 163 to 165 °C |
| Cn1nnnc1-c1cccc(S(=O)(=O)Cl)c1 | 86 to 88 °C |
| COc1cccc(-c2n[nH]cc2C=O)c1 | 91 to 93 °C |
| Cc1cc(C=O)c(C)n1CC(C)C | 43 to 47 °C |
| CC(Cl)C(=O)c1c[nH]c2ncccc12 (configuration not stated) | 162 to 164 °C |
| CCOC(=O)c1noc(-c2cccc(F)c2-n2ccnc2)n1 | 128 to 130 °C |
| Cc1ccnc(Cl)c1O | 97 to 99 °C |
| CC(C)c1ccc(-c2cc(N)on2)cc1 | 113 to 115 °C |
| CCOC(=O)c1ccc2c(c1)nc(S)n2CC | 152 to 154 °C |
| O=C(O)CCc1ncc(-c2ccc(F)cc2)o1 | 144 to 146 °C |

| Structure (SMILES) | melting point |
| --- | --- |
| NS(=O)(=O)Cc1ccc([N+](=O)[O-])cc1Br | 200 to 202 °C |
| COc1cccc(-n2cncn2)c1 | 95 to 97 °C |
| O=C(Nc1nncs1)OCC(F)(F)F | 213 to 215 °C |
| O=C(O)c1cccc(OCC(F)(F)F)c1 | 104 to 106 °C |
| CC(C)c1nc(C(=O)O)nn1-c1c(Cl)cccc1Cl | 179 to 181 °C |
| O=C(O)c1cccc(NC(=O)c2cccc(Br)c2)c1 | 273 to 275 °C |
| O=C(O)c1ccn(-c2ccc(Cl)cc2Cl)n1 | 179 to 181 °C |
| Cn1nc(C(F)(F)F)c(C(=O)O)c1C(F)(F)F | 127 to 129 °C |
| CCOC(=O)c1noc(N)c1-c1ccccc1 | 105 to 117 °C |
| CCS(=O)(=O)c1cccc(C(=O)O)c1 | 160 to 162 °C |
| CC(Cl)C(=O)N1CCc2ccccc21 (configuration not stated) | 106 to 108 °C |
| COc1ccc2[nH]c3c(c2c1)CC1(CC3)OCCO1 | 149 to 151 °C |
| COc1ccc(S(=O)(=O)N2CCOCC2)cc1C(=O)O | 180 to 184 °C |
| O=C(O)c1ccc(F)cc1OC(F)F | 115 to 117 °C |
| COc1ccc(Br)c(S(=O)(=O)Cl)c1 | 63 to 65 °C |
| Cc1ccc(Br)cc1N | 31 to 33 °C |
| CC(=O)c1[nH]c2c(c1C)C(=O)NC(=O)C2 | 354 to 356 °C |
| CNC(=O)c1cc(S(=O)(=O)Cl)cn1C | 154 to 156 °C |
| O=C(O)C1CC1c1ccc(OC(F)F)cc1 (configuration not stated) | 73 to 75 °C |
| Cc1cc(F)c([N+](=O)[O-])cc1S(=O)(=O)Cl | 66 to 68 °C |
| CCOCCn1c(N)cc(=O)[nH]c1=O | 257 to 259 °C |
| O=C(CCl)N1CCCC1c1ccc2c(c1)OCCO2 (configuration not stated) | 168 to 169 °C |
| COc1ccc(NC(=O)CC(C)=O)c(OC)c1 | 96 to 98 °C |
| NC(=O)NCc1ccc(N)cc1 | 159 to 161 °C |

| Structure (SMILES) | melting point |
| --- | --- |
| CC(=O)CC(=O)Nc1ccccc1F | 75 to 77 °C |
| O=C(O)c1ccccc1SCc1nnnn1-c1ccccc1 | 170 to 174 °C |
| Nc1n[nH]c(Cc2cccc(F)c2)n1 | 179 to 181 °C |
| Cc1nc(N)sc1Cc1ccc(F)cc1 | 94 to 96 °C |
| Cc1n[nH]c(-c2ccc(N)cc2)n1 | 179 to 181 °C |
| CC(C)(C)OC(=O)c1ccc(N)cc1 | 99 to 101 °C |
| Cc1csc2ccc(Cl)cc2c1=O | 109 to 111 °C |
| Cc1cc(S(=O)(=O)Cl)ccc1OC(C)C | 50 to 52 °C |
| O=C(CCl)NCc1ccc(F)cc1C(F)(F)F | 95 to 97 °C |
| O=C(O)C1CC(=O)N(c2cn[nH]c2)C1 (configuration not stated) | 259 to 261 °C |
| Nc1ccc(C(=O)N2CC(=O)Nc3ccccc32)cc1 | 286 to 288 °C |
| CCc1nnc(S)n1C | 138 to 140 °C |
| N#Cc1ccc(NCCN)nc1 | 103 to 105 °C |
| c1ccc2sc(NCC3CCCO3)nc2c1 (configuration not stated) | 130 to 132 °C |
| COC(=O)c1ccc2[nH]cc(C=O)c2c1 | 230 to 232 °C |
| CC(=O)Nc1ccc2nc(N)sc2c1 | 217 to 219 °C |
| COC(=O)c1cc(S(N)(=O)=O)ccc1O | 136 to 138 °C |
| Cc1c(N)cccc1C#N | 90 to 92 °C |
| Nc1cc(C(=O)O)cnc1Cl | 199 to 201 °C |
| Cc1ccnc(-n2cc(S(N)(=O)=O)cn2)c1 | 156 to 158 °C |
| COc1cc(C#N)ccn1 | 94 to 96 °C |
| C#CC1CCCN(C(=O)OC(C)(C)C)C1 (configuration not stated) | 67 to 69 °C |
| CC(=O)c1cc([N+](=O)[O-])c(Cl)s1 | 74 to 76 °C |
| N#Cc1cc(N)c(Cl)c([N+](=O)[O-])c1 | 205 to 207 °C |

| Structure (SMILES) | melting point |
| --- | --- |
| CCOc1ccc(-c2nnc(S)n2N)cc1 | 208 to 212 °C |
| COc1ccc(C(C)=O)cc1CN1CCOCC1 | 58 to 60 °C |
| N#CC1(c2ccc(C(=O)O)cc2)CC1 | 219 to 221 °C |
| O=C(O)CCSCc1nc2ccccc2c(=O)[nH]1 | 193 to 195 °C |
| OCC#Cc1ccc(Cl)cc1 | 76 to 78 °C |
| N#CCS(=O)(=O)N1CCCCC1 | 137 to 139 °C |
| COc1cc(-c2cc(C(=O)O)c3ccccc3n2)cc(OC)c1OC | 195 to 197 °C |
| Cc1sc(C(N)=O)cc1N | 179 to 181 °C |
| CCN(CC)S(=O)(=O)c1ccc(Cl)c(C(=O)O)c1 | 121 to 125 °C |
| NC(=O)Cc1csc(N)n1 | 158 to 165 °C |
| O=C(O)C1CCCS1 (configuration not stated) | 48 to 50 °C |
| COc1ccc(N)cc1S(=O)(=O)N1CCOCC1 | 131 to 133 °C |
| O=C(O)c1cc(S(=O)(=O)N2CCSCC2)c[nH]1 | 238 to 240 °C |
| CC(=O)Nc1ccc(CCN)cc1 | 121 to 123 °C |
| O=C(O)c1cc(C2CC2)on1 | 97 to 99 °C |
| CCOC(=O)c1c(N)n(CCO)c2nc3ccccc3nc12 | 226 to 228 °C |
| CN(C(=O)c1ccc(Br)o1)c1ccccc1C(=O)O | 167 to 169 °C |
| COc1ccc(NC(=S)NN)cn1 | 154 to 156 °C |
| Clc1cccc2c1NCC2 | 29 to 31 °C |
| N#Cc1cc2c([nH]c1=O)CCN(Cc1ccccc1)C2 | 218 to 220 °C |
| COc1cc(CC#N)cc(Br)c1OCC(F)(F)F | 116 to 118 °C |
| CCCCC(NC(=O)C(C)NC(C)=O)C(=O)O (configuration not stated) | 143 to 145 °C |
